Target: CFTR-mediated chloride transport (Homo sapiens, UniProt P13569)
Assay: Corrector Assay A - membrane potential dye assay (enteroid cells)
Settings: for Corrector Assay A % activity: % of chloride transport of triple combination control (1 μM (14S)-dispiro macrocycle + 3 μM tezacaftor + 300 nM ivacaftor); for EC50: read-out: Corrector Assay A EC50, human intestinal enteroid cells, 18-24 h incubation, acute 10 μM forskolin + 300 nM ivacaftor

SMILES	Corrector Assay A % activity	EC50 [nM]
CC(C)(C)COc1ccn(-c2ccc3c(n2)N2C[C@@H](CC[C@H](c4ccccn4)Nc4cccc(n4)S(=O)(=O)NC3=O)CC2(C)C)n1 [Compound 322]	++ (++ is 30-60%)	< 1000
CC(C)(C)c1ccc2c(n1)N1C[C@@H](CCC(c3ccc(C4CCNCC4)cn3)Nc3cccc(n3)S(=O)(=O)NC2=O)CC1(C)C (stereo partly drawn) [Compound 154, (14S)-8-tert-Butyl-12,12-dimethyl-17-[5-(piperidin-4-yl)pyridin-2-yl]-2λ^6-thia-3,9,11,18,23-pentaazatetracyclo[17.3.1.111,14.05,10]tetracosa-1(23),5(10),6,8,19,21-hexaene-2,2,4-trione]	+++ (+++ is >60%)	< 1000
CC(C)(C)c1ccc2c(n1)N1C[C@@H](CCC(c3cc(CN)ccn3)Nc3cccc(n3)S(=O)(=O)NC2=O)CC1(C)C (single isomer, unassigned) [Compound 115]	+++ (+++ is >60%)	< 1000
CC(C)(C)c1ccc2c(n1)N1C[C@@H](CCC(c3ccc(CCC(=O)O)cn3)Nc3cccc(n3)S(=O)(=O)NC2=O)CC1(C)C (stereo partly shown) [Compound 97]	++ (++ is 30-60%)	1000 to 3000
CC(C)(C)c1ccc2c(n1)N1C[C@@H](CCC(c3ccc(CCCN)cn3)Nc3cccc(n3)S(=O)(=O)NC2=O)CC1(C)C (stereo partly shown) [Compound 137]	++ (++ is 30-60%)	< 1000
CC(C)(C)NCc1ccnc([C@@H]2CC[C@@H]3CN(c4nc(C(C)(C)C)ccc4C(=O)NS(=O)(=O)c4cccc(n4)N2)C(C)(C)C3)c1 (single isomer, unassigned) [Compound 62]	++ (++ is 30-60%)	1000 to 3000
COC(=O)NCc1cccc([C@H]2CC[C@@H]3CN(c4nc(C(C)(C)C)ccc4C(=O)NS(=O)(=O)c4cccc(n4)N2)C(C)(C)C3)n1 [Compound 101, Methyl N-({6-[(14S,17R)-8-tert-butyl-12,12-dimethyl-2,2,4-trioxo-2λ^6-thia-3,9,11,18,23-pentaazatetracyclo[17.3.1.111,14.05,10]tetracosa-1(22),5,7,9,19(23),20-hexaen-17-yl]pyridin-2-yl}methyl)carbamate]	++ (++ is 30-60%)	< 1000
CC(C)(C)c1ccc2c(n1)N1C[C@@H](CCC(c3ccc(-c4cn[nH]c4)cn3)Nc3cccc(n3)S(=O)(=O)NC2=O)CC1(C)C (stereo partly shown) [Compound 136]	+++ (+++ is >60%)	< 1000
CC1(C)C[C@@H]2CC[C@H](c3ccccn3)Nc3cccc(n3)S(=O)(=O)NC(=O)c3ccc(-n4ccc(OCC5CC5)n4)nc3N1C2 [Compound 334]	+++ (+++ is >60%)	< 1000
CC(C)(C)c1ccc2c(n1)N1C[C@@H](CCC(C3CCNCC3)Nc3cccc(n3)S(=O)(=O)NC2=O)CC1(C)C (single isomer, unassigned) [Compound 249]	++ (++ is 30-60%)	> 3000
CC1(C)C[C@@H]2CC[C@H](c3ccccn3)Nc3cccc(n3)S(=O)(=O)NC(=O)c3ccc(Br)nc3N1C2 [Compound 246, (14S,17R)-8-bromo-12,12-dimethyl-17-(pyridin-2-yl)-2λ^6-thia-3,9,11,18,23-pentaazatetracyclo[17.3.1.111,14.05,10]tetracosa-1(22),5,7,9,19(23),20-hexaene-2,2,4-trione]	++ (++ is 30-60%)	< 1000
CC(C)(C)c1ccc2c(n1)N1C[C@@H](CCC(c3ccc(CCC(=O)O)cn3)Nc3cccc(n3)S(=O)(=O)NC2=O)CC1(C)C (stereo partly drawn) [Compound 98, 3-{6-[(14S)-8-tert-Butyl-12,12-dimethyl-2,2,4-trioxo-2λ^6-thia-3,9,11,18,23-pentaazatetracyclo[17.3.1.111,14.05,10]tetracosa-1(23),5(10),6,8,19,21-hexaen-17-yl]pyridin-3-yl}propanoic acid]	+ (+ is <30%)	1000 to 3000
CC(C)(C)C#Cc1ccc2c(n1)N1C[C@@H](CC[C@H](c3ccccn3)Nc3cccc(n3)S(=O)(=O)NC2=O)CC1(C)C [Compound 177]	+++ (+++ is >60%)	< 1000
CC1(C)C[C@@H]2CC[C@@H](c3ccccn3)Nc3cccc(n3)S(=O)(=O)NC(=O)c3ccc(C#N)nc3N1C2 [Compound 192]	+ (+ is <30%)	1000 to 3000
CC(C)(C)c1ccnc([C@H]2CC[C@@H]3CN(c4nc(-c5cccc(OCC6CCC6)n5)ccc4C(=O)NS(=O)(=O)c4cccc(n4)N2)C(C)(C)C3)c1 [Compound 302, (14S,17R)-17-(4-tert-butylpyridin-2-yl)-8-[6-(cyclobutylmethoxy)pyridin-2-yl]-12,12-dimethyl-2λ^6-thia-3,9,11,18,23-pentaazatetracyclo[17.3.1.111,14.05,10]tetracosa-1(22),5,7,9,19(23),20-hexaene-2,2,4-trione]	+++ (+++ is >60%)	< 1000
CC(C)(C)CCOc1cccc(-c2ccc3c(n2)N2C[C@@H](CC[C@H](c4ccccn4)Nc4cccc(n4)S(=O)(=O)NC3=O)CC2(C)C)n1 [Compound 310]	++ (++ is 30-60%)	< 1000
CN(C)C(=O)CCCC1CC[C@@H]2CN(c3nc(C(C)(C)C)ccc3C(=O)NS(=O)(=O)c3cccc(n3)N1)C(C)(C)C2 (stereo partly drawn) [Compound 18, 4-[(14S)-8-tert-Butyl-12,12-dimethyl-2,2,4-trioxo-2λ^6-thia-3,9,11,18,23-pentaazatetracyclo[17.3.1.111,14.05,10]tetracosa-1(23),5(10),6,8,19,21-hexaen-17-yl]-N,N-dimethylbutanamide]	+++ (+++ is >60%)	< 1000
CC(C)(C)c1ccc2c(n1)N1C[C@@H](CCC(c3ccc(N4CCCC4)cn3)Nc3cccc(n3)S(=O)(=O)NC2=O)CC1(C)C (stereo partly shown) [Compound 163]	++ (++ is 30-60%)	< 1000

Further lines, results first:

Corrector Assay A % activity	EC50 [nM]	SMILES
+++ (+++ is >60%)	< 1000	CC(C)(C)c1ccc2c(n1)N1C[C@@H](CCC(C(C)(C)C)Nc3cccc(n3)S(=O)(=O)NC2=O)CC1(C)C (single isomer, unassigned) [Compound 244]
++ (++ is 30-60%)	< 1000	CC(C)Cc1ccc(C2CC[C@@H]3CN(c4nc(C(C)(C)C)ccc4C(=O)NS(=O)(=O)c4cccc(n4)N2)C(C)(C)C3)nc1 (stereo partly drawn) [Compound 181, (14S)-8-tert-butyl-12,12-dimethyl-17-[5-(2-methylpropyl)pyridin-2-yl]-2λ^6-thia-3,9,11,18,23-pentaazatetracyclo[17.3.1.111,14.05,10]tetracosa-1(23),5(10),6,8,19,21-hexaene-2,2,4-trione]
+++ (+++ is >60%)	< 1000	Cn1cc(C2CC[C@@H]3CN(c4nc(C(C)(C)C)ccc4C(=O)NS(=O)(=O)c4cccc(n4)N2)C(C)(C)C3)cn1 (single isomer, unassigned) [Compound 280]
+++ (+++ is >60%)	< 1000	Cc1cccc(C)c1[C@@H]1CC[C@@H]2CN(c3nc(C(C)(C)C)ccc3C(=O)NS(=O)(=O)c3cccc(n3)N1)C(C)(C)C2 (single isomer, unassigned) [Compound 243]
+++ (+++ is >60%)	< 1000	CC(C)(C)c1ccc2c(n1)N1C[C@@H](CC[C@@H](c3ncccn3)Nc3cccc(n3)S(=O)(=O)NC2=O)CC1(C)C (single isomer, unassigned) [Compound 207]
+ (+ is <30%)	–	CC(C)(C)c1ccc2c(n1)N1CC(CCN(c3ccccc3)C(=O)c3cccc(c3)S(=O)(=O)NC2=O)CC1(C)C (single isomer, unassigned) [Compound 266, 8-tert-butyl-12,12-dimethyl-17-phenyl-2λ^6-thia-3,9,11,17-tetraazatetracyclo[17.3.1.111,14.05,10]tetracosa-1(22),5,7,9,19(23),20-hexaene-2,2,4,18-tetrone]
++ (++ is 30-60%)	< 1000	CC(O)CC1CC[C@@H]2CN(c3nc(C(C)(C)C)ccc3C(=O)NS(=O)(=O)c3cccc(n3)N1)C(C)(C)C2 (single isomer, unassigned) [Compound 20]
+ (+ is <30%)	< 1000	CN1c2cccc(n2)S(=O)(=O)NC(=O)c2ccc(C(C)(C)C)nc2N2C[C@@H](CCC1c1ccccc1)CC2(C)C (single isomer, unassigned) [Compound 261]
+++ (+++ is >60%)	< 1000	CC1CCC2CN(c3nc(C(C)(C)C)ccc3C(=O)NS(=O)(=O)c3ccn1n3)C(C)(C)C2 (single isomer, unassigned) [Compound 272]
++ (++ is 30-60%)	< 1000	CC(C)(C)c1ccc2c(n1)N1C[C@@H](CC[C@H](c3cccc(C(N)=O)n3)Nc3cccc(n3)S(=O)(=O)NC2=O)CC1(C)C [Compound 70, 6-[(14S,17R)-8-tert-butyl-12,12-dimethyl-2,2,4-trioxo-2λ^6-thia-3,9,11,18,23-pentaazatetracyclo[17.3.1.111,14.05,10]tetracosa-1(22),5,7,9,19(23),20-hexaen-17-yl]pyridine-2-carboxamide]
++ (++ is 30-60%)	< 1000	CC(C)(C)c1ccc2c(n1)N1C[C@@H](CC[C@@H](c3cccc(N4CCOCC4)n3)Nc3cccc(n3)S(=O)(=O)NC2=O)CC1(C)C [Compound 190]
++ (++ is 30-60%)	< 1000	CC(C)(C)c1ccc2c(n1)N1C[C@@H](CCC3CCCC(=O)N3c3cccc(n3)S(=O)(=O)NC2=O)CC1(C)C (stereo partly drawn) [Compound 14, (10S)-16-tert-Butyl-12,12-dimethyl-22λ^6-thia-2,13,15,21,27-pentaazapentacyclo[21.3.1.110,13.02,7.014,19]octacosa-1(26),14(19),15,17,23(27),24-hexaene-3,20,22,22-tetrone]
++ (++ is 30-60%)	< 1000	CC(C)(C)c1ccc([C@@H]2CC[C@@H]3CN(c4nc(C(C)(C)C)ccc4C(=O)NS(=O)(=O)c4cccc(n4)N2)C(C)(C)C3)cc1 (single isomer, unassigned) [Compound 37]

From patent publication US20220313698A1, “MODULATORS OF CYSTIC FIBROSIS TRANSMEMBRANE CONDUCTANCE REGULATOR” (Vertex Pharmaceuticals Incorporated, priority 2019, published 2022)
